The record followed here is US20260055118A1, “VISIBLE LIGHT SENSITIVE PHOTOREMOVABLE PROTECTING GROUPS, PREPARATION PROCESS THEREOF, PHOTOACTIVATABLE CONJUGATES COMPRISING THEM AND USES THEREOF” (HUN-REN TERMÉSZETTUDOMÁNYI KUTATÓKÖZPONT, priority 2022, published 2026).

SMILES strings stand for the structures. Like-named read-outs stand apart in the source and are kept apart here.

For series [1], the system named is SK-OV-3 cells. In words: Cytotoxicity determination, MTT assay, with light irradiation and in the dark. Type of series: cell-based, human. How it is done:
A viability test was carried out to assess the toxicity of SN38 as well as the photoremovable protecting group-SN38 conjugates X1′-SN38 and X2′-SN38 after light irradiation and in the dark on SKOV3 cells. Cells were transferred into a 48-well plate (Thermo Fisher Scientific, 130187) (4,500 cells/well) and incubated for 20-24 h at 37° C. in a 5% CO2 atmosphere in McCoy's 5A (Modified) Medium, HEPES (Gibco 22330021) supplemented with 10% FBS (Gibco 10500-064), 1% penicillin-streptomycin (Gibco 15140-122). Cells were treated with compounds in the concentration range of 10^−11-10^−4 M for 90 min followed by light irradiation or kept in the dark at 37° C. in 5% CO2 atmosphere. After treatment and irradiation, cells were kept at 37° C. in 5% CO2 atmosphere for 72 hours. After the incubation period, supernatants were replaced with 0.5 mg/ml MTT (3-(4,5-dimethylthiazol-2-yl)-2,5-diphenyltetrazolium bromide; Sigma M5655-1G) solution (in complete DMEM: Dulbecco's modified Eagle's medium (DMEM, Gibco 41965-039), supplemented with 10% FBS (Gibco 10500-064), 1% penicillin-streptomycin (Gibco 15140-122), 1% Glutamax (Gibco 35050-061) and 1% sodium pyruvate (Life Technologies, Gibco 11360-070)) and incubated for 120 min at 37° C. in the dark. The insoluble formazan crystals were dissolved in 250 μl DMSO. Absorbance was detected at 540 nm using a Biotek Synergy 2 Cytation 3 imaging plate reader with Gen5 software version 3.08 (Biotek Winooski, VT, USA). Viability was expressed as percentage (n=3) of the readings of untreated control cells.
To determine phototoxic properties of compounds X1′-SN38 and X2′-SN38, standard MTT assays were performed on SK—OV-3 cells. To irradiate multiple specimens, an LED panel was custom-made for a 48-well plate consisting of 24 LEDs using green (4 W input power, λmax=549 nm half-width: 16 nm, output power: 72 mW), orange (4 W input power, λmax=605 nm half-width: 10 nm, output power: 140 mW) and red (4 W input power, λmax=658 nm half-width: 10 nm, for Q=CMe2 output power: 210 mW) LED irradiation. The board was specifically designed for the plates and offer water cooling to minimize heat shock to cells. Every second well can be irradiated with an individual LED. First, the cytotoxicity of the free active agent, SN38 was determined to be EC50 ^˜6 nM. Treatment of cells with the photoactivatable SN38 derivatives for 72 hours in the absence of light (without washing) produced moderate cytotoxic effects, sigificantly lowering the effectiveness of the active agent. This confirms that SN38 is a suitable candidate for light-activated prodrug applications. […] Reducing the irradiation time down to 10 s still produced significant phototoxicity in higher concentrations (see FIG. 8a for compound X2′-SN38) even assuming incomplete uncaging as a result of the substantial dark stability of compound X2′-SN38.
Background: Formazan colour is commonly taken as a measure of viable cells.

Series [2] concerns SK-OV-3 cells. Put plainly: Live cell confocal fluorescence imaging (cell permeability, colocalization). Type of series: cell-based, human. The following applies: live SK-OV-3 cells, confocal microscopy. Here is the method: SKOV3 (ATCC HTB-77) cells were maintained in McCoy's 5A (Modified) Medium, HEPES (Gibco 22330021) media supplemented with 10% FBS (Gibco 10500-064), 1% penicillin-streptomycin (Gibco 15140-122). The cells were cultured at 37° C. in a 5% CO2 atmosphere and passaged—using trypsin (Gibco 25300-054)—every 3-4 days up to 20 passages.
SKOV3 ([…]) cells were transferred into μ-Slide 8 well plates (Ibidi 80827) and were incubated for 40 h at 37° C. in a 5% CO2 atmosphere. After 30 min treatment with compounds X1′-SN38 and X2′—SN38 in the concentration of 1 μM and in some cases in combination with 1 nM MitoTracker Deep Red FM (Invitrogen M22426) or 1 nM LysoTracker Deep red (Invitrogen L12492) or 50 nM MitoTracker Red FM (Invitrogen M22425) or 50 nM LysoTracker red DND-99 (Invitrogen L7528). The samples were subjected to microscopy analyses. […]
Due to their high fluorescence, the cell permeability of compounds X1′-SN38 and X2′-SN38 were tested in live SK—OV-3 (human ovarian carcinoma) cells using confocal microscopy. […] The decrease of fluorescence (related to the photolysis reaction) was only observed in the irradiated area. Overall, these experiments serve as evidence for the cell permeability, biocompatibility and excellent ability of this invention to determine the localization of the photoactivatable conjugates via fluorescence microscopy.

The EC50 is the concentration that produces a half-maximal response. On to `CCc1c2c(nc3ccc(OC(=O)N(C)CCN(C)C(=O)OC(C)c4c5ccc(=[N+]6CCCC6)cc-5oc5cc(N6CCCC6)ccc45)cc13)-c1cc3c(c(=O)n1C2)COC(=O)C3(O)CC.[I-]` (mixture of isomers) [X1′-SN38], for which the half-maximal effective concentration (EC50) in the series with SK-OV-3 cells [1] (dark, (green) series, read-out: Dark EC50 values) amounted to 4000 nM; in the series with SK-OV-3 cells [1] (dark, (orange) series, read-out: Dark EC50 values) it was 1100 nM; in the series with SK-OV-3 cells [1] (green light irradiation, 15 min, read-out: EC50 values after irradiation), 63 nM; with SK-OV-3 cells [1] (orange light, 5 min, read-out: EC50 values after irradiation) it was 23 nM. The Photoindex in the series on SK-OV-3 cells [1] (green light, 15 min) is recorded as 64; in the series on SK-OV-3 cells [1] (orange light, 5 min) it was 45. In addition, in the series with SK-OV-3 cells [2], the cell permeability entry is reported as “cell permeable”.
